In assay [1] the target is T1, human FLT3 protein (FLT3 (WT)) (Homo sapiens, UniProt P36888).
T1 construct: human FLT3 protein (intracellular region, 564 to 993 aa); GST; purchased Carna Biosciences; host or cells: baculovirus expression system
T1 sequence (P36888 564-993): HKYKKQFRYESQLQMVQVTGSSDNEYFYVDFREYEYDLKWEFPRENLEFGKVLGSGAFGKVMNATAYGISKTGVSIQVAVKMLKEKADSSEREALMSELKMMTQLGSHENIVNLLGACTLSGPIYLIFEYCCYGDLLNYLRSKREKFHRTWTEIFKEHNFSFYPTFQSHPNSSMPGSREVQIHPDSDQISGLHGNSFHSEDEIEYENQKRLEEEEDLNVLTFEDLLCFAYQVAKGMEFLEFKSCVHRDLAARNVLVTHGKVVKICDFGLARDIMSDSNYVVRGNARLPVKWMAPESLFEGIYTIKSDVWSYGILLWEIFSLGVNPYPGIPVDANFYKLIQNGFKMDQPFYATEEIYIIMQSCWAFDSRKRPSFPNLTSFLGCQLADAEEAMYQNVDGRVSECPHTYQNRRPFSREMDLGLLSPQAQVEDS
The assay is described as follows: FLT3 inhibition test (FLT3 enzyme inhibition, time-resolved fluorescence of substrate peptide phosphorylation). The assay is classed as biochemical. The conditions noted are these: read-out: FLT3 (WT) enzyme inhibition activity. Put shortly:
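Wild-type human FLT3 (1.2 μg) pre-incubated with compound 15 min at 25° C in 100 mM HEPES pH 7.5, 10 mM MgCl2, 25 mM NaCl, 1 mM DTT. Reaction started with substrate peptide and ATP (final 50 μM), run 30 min at 25° C; phosphorylation read by time-resolved fluorescence.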

Another assay concerns Molm-13 cells. The assay is described as follows: Leukemia cell proliferation inhibition test (ATPlite), Molm-13. The assay is classed as cell-based. The settings on record: Homo sapiens, read-out: MOLM13 cell proliferation inhibition effect. The method, boiled down:
(§1)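 Molm-13 or MV4-11 cells at 10,000 cells/well in RPMI with 10% FBS and pen/strep were exposed to serially diluted compound for 72 h at 37 °C, 5% CO2. Total cellular ATP was read by luciferase luminescence. GI50 was taken relative to 0.1% DMSO control, from duplicates by sigmoid non-linear regression.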

A further assay concerns MV4-11 cells. Description: Leukemia cell proliferation inhibition test (ATPlite), MV4-11. The assay is classed as cell-based. The conditions noted are these: Homo sapiens, read-out: MV4-11 cell proliferation inhibition effect. Put shortly:
as §1
For orientation: ATP-based viability assays read luminescence as a measure of living cells.

Where [2] appears, read: GST-fused human FLT3 (564 to 993 aa), ATP 50 μM.
The mark [3] stands for this setting: MOLM-13, 72 h, Molm-13, 72 hours culture, ATPlite, GI50 per method.
[4] abbreviates: MV4-11, 72 h, MV4-11, 72 hours culture, ATPlite, GI50 per method.

Like-named read-outs stand apart in the source and are kept apart here.

For `CNc1ncc(C#C[C@@H]2CCC[C@H](NC(=O)[C@H](C)N(C)C(=O)/C=C/CN(C)C)C2)c(NCc2cccc(F)c2)n1` [Compound 21-44], the IC50 in assay [1] (FLT3 (WT)) is < 10 nM; in the assay with Molm-13 cells (MOLM-13, MOLM13 cell), 10 to 100 nM; in the assay on MV4-11 cells (MV4-11, MV4-11 cell), 10 to 100 nM.
Take `C=CC(=O)NCC(=O)NC1CCCC(NC(=O)c2cnc(NCCc3ccncc3)nc2NCCC)C1` (stereo not drawn) [Compound 1-4]: the IC50 in assay [1] (setting [2]) is < 10 nM; in the assay with Molm-13 cells (setting [3]), 10 to 100 nM; in the assay on MV4-11 cells (setting [4]), < 10 nM.
As for `C=CC(=O)NCC(=O)N1CCC(NC(=O)c2cnc(NCCc3ccncc3)nc2NCCC)CC1` [Compound 6-19], the IC50 (in assay [1] (setting [2]); in the assay on Molm-13 cells (setting [3]); with MV4-11 cells (setting [4])) was 10 to 100 nM in each case.
In the case of `CCCNc1nc(Nc2cc(C)ns2)ncc1C#CCCCNC(=O)[C@H](C)N(C)C(=O)/C=C/CN(C)C` [Compound 9-30, (S,E)-4-(Dimethylamino)-N-methyl-N-(1-((5-(2-((3-methylisothiazol-5-yl)amino)-4-(propylamino)pyrimidin-5-yl)-4-pentyn-1-yl)amino)-1-oxopropan-2-yl)-2-butenamide], the IC50 (in assay [1] (setting [2]); in the assay on Molm-13 cells (setting [3]); with MV4-11 cells (setting [4])) was < 10 nM each time.
For the compound `CCCN(C)c1nc(Nc2ccc(C(=O)NC)cc2)ncc1C#CCCCNC(=O)[C@H](C)N(C)C(=O)/C=C/CN(C)C` [Compound 9-9], the IC50 (in assay [1] (setting [2]); in the assay on Molm-13 cells (setting [3]); in the assay on MV4-11 cells (setting [4])) was < 10 nM throughout.
Consider `CCCNc1ncc(C#CCCCNC(=O)[C@H](C)N(C)C(=O)/C=C/CN(C)C)c(Nc2ccc(OC)cc2)n1` [Compound 21-38], for which the IC50 in assay [1] (FLT3 (WT)) is < 10 nM; in the assay with Molm-13 cells (MOLM-13, MOLM13 cell) it was < 10 nM; in the assay on MV4-11 cells (MV4-11, MV4-11 cell), < 10 nM.
On to `C[C@@H](C(=O)NCCCC#Cc1cnc(Nc2cncc(F)c2)nc1NC1CC1)N(C)C(=O)/C=C/CN(C)C` [Compound 9-22], for which the IC50 in assay [1] (setting [2]) was < 10 nM; with Molm-13 cells (setting [3]) it was 10 to 100 nM; in the assay on MV4-11 cells (setting [4]), < 10 nM.
For `CCCNc1nc(Nc2ccc3nn(C)cc3c2)ncc1C#CCCCNC(=O)[C@H](C)N(C)C(=O)/C=C/CN(C)C` [Compound 21-7], the IC50 (in assay [1] (setting [2]); with Molm-13 cells (setting [3]); in the assay with MV4-11 cells (setting [4])) was < 10 nM throughout.
On to `CNc1ncc(C#C[C@H]2C[C@@H](NC(=O)[C@H](C)N(C)C(=O)/C=C/CN(C)C)C2)c(Nc2ccc(OC)cc2)n1` [Compound 13-21], for which the IC50 (in assay [1] (setting [2]); with Molm-13 cells (setting [3]); in the assay on MV4-11 cells (setting [4])) was < 10 nM in each case.
Turning to `CCCNc1nc(Nc2ccc(F)c(OC)c2)ncc1C#CCCCNC(=O)[C@H](C)N(C)C(=O)/C=C/CN(C)C` [Compound 9-29], the IC50 (in assay [1] (setting [2]); in the assay with Molm-13 cells (setting [3]); in the assay with MV4-11 cells (setting [4])) was < 10 nM throughout.
`CCNc1nc(Nc2ccc3cn[nH]c3c2)ncc1C#CCCCNC(=O)[C@@H]1CCCN1C(=O)/C=C/CN(C)C` [Compound 10-70]: the IC50 (in assay [1] (setting [2]); in the assay on Molm-13 cells (setting [3]); in the assay with MV4-11 cells (setting [4])) was < 10 nM throughout.
As for `CCCNc1nc(NCCc2ccncc2)ncc1C(=O)Nc1ccc(OC)c(NC(=O)CNC(=O)/C=C/CN(C)C)c1` [Compound 1-9], the IC50 in assay [1] (setting [2]) was < 10 nM; in the assay with Molm-13 cells (setting [3]) it was 10 to 100 nM; with MV4-11 cells (setting [4]), < 10 nM.
Regarding `CCCNc1nc(Nc2ccc(-n3ccnn3)cc2)ncc1C#CCCCNC(=O)[C@H](C)N(C)C(=O)/C=C/CN(C)C` [Compound 22-17], the IC50 was < 10 nM in assay [1] (FLT3 (WT)); < 10 nM in the assay on Molm-13 cells (MOLM-13, MOLM13 cell); < 10 nM in the assay on MV4-11 cells (MV4-11, MV4-11 cell).
As for `CNc1nc(Nc2ccc(C#N)cc2)ncc1C#CCCCNC(=O)[C@@H]1CCCN1C(=O)/C=C/CN(C)C` [Compound 21-45], the IC50 in assay [1] (FLT3 (WT)) is < 10 nM; in the assay with Molm-13 cells (MOLM-13, MOLM13 cell) it was < 10 nM; in the assay with MV4-11 cells (MV4-11, MV4-11 cell), < 10 nM.
Take `CC(C)CNc1nc(Nc2ccc(C#N)cc2)ncc1C#CCCCNC(=O)[C@H](C)N(C)C(=O)/C=C/CN(C)C` [Compound 10-24]: the IC50 (in assay [1] (setting [2]); with Molm-13 cells (setting [3]); with MV4-11 cells (setting [4])) was < 10 nM throughout.
Take `CCCNc1nc(Nc2ccc3c(OC)nn(C)c3c2)ncc1C#CCCCNC(=O)[C@H](C)N(C)C(=O)/C=C/CN(C)C` [Compound 22-26]: the IC50 was < 10 nM in assay [1] (FLT3 (WT)); 10 to 100 nM in the assay on Molm-13 cells (MOLM-13, MOLM13 cell); 10 to 100 nM in the assay on MV4-11 cells (MV4-11, MV4-11 cell).
On to `C[C@@H](C(=O)NCCCC#Cc1cnc(Nc2ccc3[nH]ncc3c2)nc1NC1CC1)N(C)C(=O)/C=C/CN(C)C` [Compound 10-72], for which the IC50 (in assay [1] (setting [2]); in the assay on Molm-13 cells (setting [3]); in the assay with MV4-11 cells (setting [4])) was < 10 nM throughout.
Turning to `CCCNc1nc(Nc2ccc(C(N)=O)cc2)ncc1C(=O)Nc1cccc(NC2CCN(C(=O)/C=C/CN(C)C)C2)c1` (stereo not drawn) [Compound 3-20], the IC50 in assay [1] (setting [2]) is < 10 nM; in the assay on Molm-13 cells (setting [3]), 100 to 1000 nM; with MV4-11 cells (setting [4]), 10 to 100 nM.
For `CCCNc1nc(Nc2ccc(C#N)cc2)ncc1C#CCCCNC(=O)CN(CC)C(=O)/C=C/CN(C)C` [Compound 7-39] the same measures were < 10 nM, < 10 nM and < 10 nM.
For `COc1ccc(Nc2nc(Nc3ccc(F)cc3)ncc2C#CCCCNC(=O)[C@H](C)N(C)C(=O)/C=C/CN(C)C)cn1` [Compound 10-40] the same measures were < 10 nM, < 10 nM and < 10 nM.
For `COCCCNc1nc(Nc2ccc(C#N)cc2)ncc1C#CCCCNC(=O)[C@H](C)N(C)C(=O)/C=C/CN(C)C` [Compound 10-49], the IC50 (in assay [1] (setting [2]); with Molm-13 cells (setting [3]); in the assay with MV4-11 cells (setting [4])) was < 10 nM throughout.
With `C=CC(=O)NCCNC(=O)c1cnc(NCCc2ccncc2)nc1NCCC` [Compound 2-17], the figures for the IC50 (in assay [1] (setting [2]); in the assay with Molm-13 cells (setting [3]); in the assay with MV4-11 cells (setting [4])) were 10 to 100 nM, 100 to 1000 nM and 100 to 1000 nM, respectively.
Regarding `CN(C)C/C=C/C(=O)N1CCC[C@H]1C(=O)N[C@H]1C[C@@H](C#Cc2cnc(Nc3cccc(F)c3)nc2NC2CC2)C1` [Compound 15-11], the IC50 (in assay [1] (setting [2]); in the assay with Molm-13 cells (setting [3]); in the assay with MV4-11 cells (setting [4])) was < 10 nM each time.
As to `CN(C)C/C=C/C(=O)N1CCC[C@H]1C(=O)NCCCC#Cc1cnc(Nc2ccc3cn[nH]c3c2)nc1NC1CC1` [Compound 10-75], the IC50 (in assay [1] (setting [2]); with Molm-13 cells (setting [3]); in the assay on MV4-11 cells (setting [4])) was < 10 nM in each case.
Turning to `COCCN(C)c1nc(Nc2ccc(C#N)cc2)ncc1C#CCCCNC(=O)[C@H](C)N(C)C(=O)/C=C/CN(C)C` [Compound 10-51], the IC50 (in assay [1] (setting [2]); with Molm-13 cells (setting [3]); in the assay with MV4-11 cells (setting [4])) was < 10 nM in each case.
`COCCCNc1nc(Nc2ccc(F)nc2)ncc1C#CCCCNC(=O)CN(C)C(=O)/C=C/CN(C)C` [Compound 10-31]: the IC50 in assay [1] (setting [2]) was < 10 nM; in the assay on Molm-13 cells (setting [3]), 10 to 100 nM; with MV4-11 cells (setting [4]) it was < 10 nM.
`CCCNc1nc(Nc2ccc(C#N)cc2)ncc1C#CCCCNC(=O)[C@@H]1C[C@@H](O)CN1C(=O)/C=C/CN(C)C` [Compound 7-68]: the IC50 (in assay [1] (setting [2]); with Molm-13 cells (setting [3]); with MV4-11 cells (setting [4])) was < 10 nM in each case.
As to `COc1ccc(Nc2nc(Nc3ccc(F)nc3)ncc2C#CCCCNC(=O)[C@H](C)N(C)C(=O)/C=C/CN(C)C)cc1` [Compound 7-22], the IC50 (in assay [1] (setting [2]); with Molm-13 cells (setting [3]); with MV4-11 cells (setting [4])) was < 10 nM throughout.

(Values after patent US9145415B2, “Nitrogen-containing heterocyclic compound or salt thereof” (FUJIFILM Corporation, priority 2012, dated 2015).)
